{"source": "patent US7888359B2", "about": "“Cyclohexyl or piperidinyl carboxamide antibiotic derivatives” (Actelion Pharmaceutical Ltd., priority 2006, dated 2011)", "assay_type_in_all_cases": "cell-based", "key": {"S. aureus A798": {"tested_on": "S. aureus A798", "assay": "MIC by microdilution (NCCLS) against S. aureus A798", "conditions": "pH 7.2-7.3; for MIC: Staphylococcus aureus, A798, cation-adjusted Mueller-Hinton Broth", "description": "(§1) These assays have been performed following the description given in “Methods for dilution Antimicrobial Susceptibility Tests for Bacteria that Grow Aerobically, 4th ed.; Approved standard: NCCLS Document M7-A4; National Committee for Clinical Laboratory Standards Villanova, Pa., USA, 1997”. Minimal inhibitory concentrations (MICs; mg/L) were determined in cation-adjusted Mueller-Hinton Broth (BBL) by a microdilution method following NCCLS guidelines (National Committee for Clinical Laboratory Standards. Methods for Dilution Antimicrobial Susceptibility). The pH of the test medium was 7.2-7.3."}, "S. Pneumoniae 49619": {"tested_on": "S. Pneumoniae 49619", "assay": "MIC by microdilution (NCCLS) against S. Pneumoniae 49619", "conditions": "cation-adjusted Mueller-Hinton Broth, pH 7.2-7.3; for MIC: Streptococcus pneumoniae", "description": "as §1"}, "M. catarrhalis A894": {"tested_on": "M. catarrhalis A894", "assay": "MIC by microdilution (NCCLS) against M. catarrhalis A894", "conditions": "pH 7.2-7.3; for MIC: Moraxella catarrhalis, A894, cation-adjusted Mueller-Hinton Broth", "description": "as §1"}, "[1]": {"conditions": "cation-adjusted Mueller-Hinton Broth"}}}
{"smiles": "COc1ccc2nccc(C(O)CN3CCC(C(=O)Nc4ccc5c(c4)NC(=O)CS5)CC3)c2c1", "note": "(racemic) [Example 12, (2RS)-1-[2-hydroxy-2-(6-methoxy-quinolin-4-yl)-ethyl]-piperidine-4-carboxylic acid (3-oxo-3,4-dihydro-2H-benzo[1,4]thiazin-6-yl)-amide]", "values": [{"measurement": "MIC", "setting": "S. aureus A798", "result": 1, "unit": "µg/mL"}, {"measurement": "MIC", "setting": "S. Pneumoniae 49619", "result": 2, "unit": "µg/mL"}, {"measurement": "MIC", "setting": "M. catarrhalis A894", "result": 0.25, "unit": "µg/mL"}]}
{"smiles": "COc1ccc2nccc(OC[C@H]3CC[C@H](C(=O)Nc4ccc5c(c4)OCCO5)CC3)c2c1", "note": "[Example 1, trans-4-(6-methoxy-quinolin-4-yloxymethyl)-cyclohexanecarboxylic acid (2,3-dihydro-benzo[1,4]dioxin-6-yl)-amide]", "values": [{"measurement": "MIC", "setting": "S. aureus A798", "result": 0.06, "unit": "µg/mL"}, {"measurement": "MIC", "setting": "S. Pneumoniae 49619", "result": 0.06, "unit": "µg/mL"}, {"measurement": "MIC", "setting": "M. catarrhalis A894", "result": 0.5, "unit": "µg/mL"}]}
{"smiles": "COc1cnc2cccc(CCC3(O)CCC(C(=O)N/C=C/c4cc(F)ccc4F)CC3)c2c1", "note": "(stereo not drawn) [Example 26, trans-4-hydroxy-4-[2-(3-methoxy-quinolin-5-yl)-ethyl]-cyclohexanecarboxylic acid [2-(2,5-difluoro-phenyl)-vinyl]-amide]", "values": [{"measurement": "MIC S. aureus A798", "setting": "S. aureus A798; [1]", "result": "<0.03", "unit": "µg/mL"}, {"measurement": "MIC S. Pneumoniae 49619", "setting": "S. Pneumoniae 49619", "result": 0.125, "unit": "µg/mL"}, {"measurement": "MIC M. catarrhalis A894", "setting": "M. catarrhalis A894; [1]", "result": "<0.03", "unit": "µg/mL"}]}
{"smiles": "COc1ccc2nccc(CCC3(O)CCC(C(=O)N(C)c4ccc5c(c4)OCCO5)CC3)c2n1", "note": "(stereo not drawn) [Example 39, 4-hydroxy-4-[2-(6-methoxy-[1,5]naphthyridin-4-yl)-ethyl]-cyclohexanecarboxylic acid (2,3-dihydro-benzo[1,4]dioxin-6-yl)-methyl-amide]", "values": [{"measurement": "MIC", "setting": "S. aureus A798", "result": 1, "unit": "µg/mL"}, {"measurement": "MIC", "setting": "S. Pneumoniae 49619", "result": 8, "unit": "µg/mL"}, {"measurement": "MIC", "setting": "M. catarrhalis A894", "result": 8, "unit": "µg/mL"}]}
